# In PubChem BioAssay AID489027 (Sanford-Burnham Center for Chemical Genomics, 2010):
# Activity calls are given as the source filed them. The rule behind the calls is not given here.
# Target: UPR counterscreen luciferase reporter, luminescence
# Experiment: activators in UPR counterscreen luciferase reporter, dose response, counter-screen for adaptive UPR activator project, cell-based, luminescence (AID 489027)
row,SMILES,EC50
1,COc1cc(NC(=O)c2cccs2)ccc1NC(=O)c1cc2ccccc2o1,> 80 µM (inactive)
2,COc1ccc(/C=N/NC(=O)c2cccc([N+](=O)[O-])c2)c2ccccc12,inactive
3,COc1ccc(-c2nnc(SCC(=O)Nc3sc4c(c3C#N)CCCC4)n2-c2ccccc2)cc1,16.1 µM
4,O=C1c2ccccc2C(=O)N1/N=C/c1ccc(O)c(O)c1,inactive
5,OCCCn1c(C2CCCN2c2nc(-c3ccc(Cl)cc3)cs2)nc2cc(Cl)c(N3CCCCC3)cc21 (stereo unspecified),inactive
6,CCOc1ccc(Cn2c3ccc(OC)cc3c3nc4ccccc4nc32)cc1OC,inactive
7,CSC1=NC(C)(C)C=C(/C=C/c2ccc(Cl)cc2)N1,9.17 µM
8,C/C(CC(C)(C)C1CCCCC1)=N\NC(N)=S,12.1 µM
9,CCOC(=O)C1=C(O)/C(=C/c2cn(CC(=O)NCC3CCCO3)c3ccccc23)SC1=Nc1ccc(C)cc1 (stereo unspecified),> 80 µM (inactive)
10,CCOc1ccc(/C=C/C(O)=C2/C(=O)NC3(C)CC2c2ccccc2O3)cc1OC (stereo unspecified),inactive
11,O=C(c1ccc2c(c1)[nH]c(=S)n1c3ccccc3nc21)N1CCN(c2cccc(Cl)c2)CC1,16.4 µM
12,Nc1nc(Nc2ccccc2)nc(NC2CCCCC2)c1[N+](=O)[O-],inactive
13,C/C(=N/NC(=O)c1ccc(C)s1)c1cccc(NC(=O)COc2ccc(Cl)cc2C)c1,20 µM
14,COc1ccc(NC(=O)C(=O)N/N=C\c2ccc(CNC(=O)C(=O)Nc3ccc(C)c(C)c3)o2)c(OC)c1,4.19 µM
15,Cc1c(Cl)cccc1Nc1nc(NCCO)c2ccccc2n1,17 µM
16,CCC/C(=N/Nc1ccc(Cl)cc1)c1cnnc(-c2ccccc2)n1,inactive
17,COc1ccc(OC)c(NC(=O)c2oc3ccccc3c2NC(=O)C2CC2)c1,> 80 µM (inactive)
18,Nc1nc(-c2cc(O)ccc2[N+](=O)[O-])cc(-c2ccccc2)c1[N+](=O)[O-],7.88 µM
19,Cc1cc(C)nc(SCc2ccc(C(=O)N/N=C/c3cccc(O)c3O)cc2)n1,6.43 µM
20,O=C(COC(=O)c1ccc2[nH]c3c(c2c1)CCCC3)Nc1ccccc1Cl,> 80 µM (inactive)
21,NC1=NC[C@@H](CC2CCCCC2)N1CCc1cc(C(F)(F)F)cc(C(F)(F)F)c1,> 80 µM (inactive)
22,Oc1ccc(-c2nc3ccc4ccccc4c3c3c2CCC3)cc1O,18 µM
23,Cn1nnnc1Sc1ncnc2scc(-c3ccc(Br)cc3)c12,17.1 µM

row,SMILES,EC50
1,CCOc1ccc(S(=O)(=O)Nc2cccc(C(=O)NCC3(N4CCCCC4)CCCCC3)c2)cc1,inactive
2,COc1ccc(Cc2nnc(N/N=C/c3ccc(N(C)C)cc3)[nH]c2=O)cc1OC,> 80 µM (inactive)
3,O=C(Nc1ccc(O)c(-c2nc3ccccc3s2)c1)c1cc(=O)c2ccccc2o1,> 80 µM (inactive)
4,Cc1cc(NC(=O)/C(C#N)=C/c2ccc(-c3ccc(SC(F)F)cc3)o2)n(-c2ccccc2)n1,> 80 µM (inactive)
5,COc1ccc(C(=O)Nc2cccc(/C=C/c3nc4ccccc4c(=O)[nH]3)c2)cc1,> 80 µM (inactive)
6,Cc1ccc(NC(=O)COc2ccc(/C=C3/SC(=Nc4ccccc4)N(Cc4cccnc4)C3=O)cc2)cc1,19.6 µM
7,Cc1cccc2cc(C(c3nnnn3Cc3ccccc3)N3CCCc4ccccc43)c(=O)[nH]c12 (stereo unspecified),inactive
8,O=C(N/N=C/c1ccccc1Cl)c1[nH]c2ccc(Br)cc2c1-c1ccccc1,inactive
9,Cn1nc(C(F)(F)F)c(/C=N/OC(=O)c2ccccc2Cl)c1SCc1ccccc1Cl,inactive
10,COc1ccc(-c2nn(-c3ccccc3)cc2/C=C/C(=O)OCC(=O)Nc2cccc(C#N)c2)cc1,> 80 µM (inactive)
11,COc1ccc(Cn2c(SCc3ccccc3C)nc3cc(OC)c(OC)cc3c2=N)cc1,9.65 µM
12,O=C(COc1ccc(/C=N/NC(=O)c2cc3ccccc3o2)cc1Br)Nc1ccccc1,3.69 µM
13,CCOC(=O)c1nnc(-c2ccc(C)cc2)nc1Sc1cccc(Cl)c1,> 80 µM (inactive)
14,Cc1nc(Nc2nc(-c3ccccc3)cc(=O)[nH]2)nc2ccccc12,> 80 µM (inactive)
15,Cc1nn(Cc2c(Cl)cccc2Cl)c(C)c1NC(=O)c1sc2ccccc2c1Cl,18.5 µM
16,O=C(CC1C[C@H](C(=O)N2CCCCC2)[C@@]2(CCc3ccccc3)c3[nH]c4ccccc4c3CCN2C1=O)NCCC1=CCCCC1 (stereo partly specified),inactive
17,CC1=CC(C)[C@H](/C=N/n2c(=O)[nH]c3c([nH]c4ccc(Br)cc43)c2=O)C(C)C1 (stereo partly specified),inactive
18,COc1cc(OC)cc(C(=O)Nc2ccc3nc4n(c(=O)c3c2)CCCCC4)c1,> 80 µM (inactive)
19,Cc1ccc(Cn2c(SCC(=O)Nc3cc(C)on3)nc3ccccc3c2=O)cc1,> 80 µM (inactive)
20,O=C(Nc1nc(-c2ccc(F)c(F)c2)cs1)Nc1ccc(F)cc1F,13.4 µM
21,COc1ccc(-c2coc3cc4oc(=O)cc(-c5ccccc5)c4cc23)cc1F,inactive
22,Cc1cnc(NC(=O)c2cc(S(=O)(=O)N(C)C)ccc2N2CCCC2)s1,4.67 µM
23,O=C(Nc1ccc([N+](=O)[O-])cc1)c1nc[nH]c1C(=O)NC1CCCCC1,> 80 µM (inactive)

row,SMILES,EC50
1,CCOc1ccc(NC(=S)NC(=O)/C=C/c2ccc(OC)c(OC)c2)c([N+](=O)[O-])c1,> 80 µM (inactive)
2,CC1(C)C[C@H](O)[C@]2(CO)[C@H](O)C[C@]3(C)C(=CCC4[C@@]5(C)CC[C@H](O)C(C)(C)C5CC[C@]43C)[C@@H]2C1 (stereo partly specified),> 80 µM (inactive)
3,CCOc1ccc(-n2c(C)cc(C(=O)CCl)c2C)cc1,6.73 µM
4,O=C(NN1C(=O)/C(=C/c2ccc(O)c(O)c2)SC1=S)c1ccccc1,10.2 µM
5,Nc1nc(Nc2cccc(F)c2)nc2ccccc12,inactive
6,CCc1ccc(NC(=O)C(CC)Sc2nc3cc4c(cc3c(=O)n2Cc2ccco2)OCO4)cc1 (stereo unspecified),> 80 µM (inactive)
7,CC1(C)CC[C@@]23CC[C@]4(C)[C@@](OC2=O)(C3C1)[C@H]1O[C@H]1C1[C@@]2(C)CC[C@H](O)C(C)(C)C2CC[C@]14C (stereo partly specified),inactive
8,COc1cc2[nH]c3c(N4CCN(c5ccc(Cl)cc5)CC4)ncnc3c2cc1OC,> 80 µM (inactive)
9,CCOC(=O)C1=C(C)N=c2s/c(=C3/C(=O)Nc4ccccc43)c(=O)n2C1c1ccc(C)cc1 (stereo unspecified),> 80 µM (inactive)
10,COC(=O)C1C(O)=C(C=Nc2cccc3ccccc23)C(=O)CC1(C)C (stereo unspecified),1.41 µM
11,O=c1oc(CCCO)cc2ccc(/C=C/c3cccc([N+](=O)[O-])c3)cc12,> 80 µM (inactive)
12,COc1cc(/C=N/NC(N)=O)c(Br)cc1OCC(=O)Nc1ccccc1C,inactive
13,O=C(Cc1ccccc1)c1c[nH]c(C(=O)C(Cl)(Cl)Cl)c1,inactive
14,COc1cc(OC)c2c(-c3cccc(-c4ccc(CO)cc4)c3)cc(=O)oc2c1,> 80 µM (inactive)
15,CCOc1ccc(C(=O)Nc2ccc(NC(=O)c3ccco3)c(Cl)c2)cc1Cl,8.74 µM
16,COC(=O)c1c(NC(=O)c2nc3ccccc3s2)sc2c1CC(C)(C)NC2(C)C,> 80 µM (inactive)
17,Cc1[nH]c2ccccc2c1/C=C/c1nc2ccccc2c(=O)n1-c1ccc([N+](=O)[O-])cc1,> 80 µM (inactive)
18,COc1ccc(CCn2c(C3CCCCC3)nc3c(c(=O)c4ccccc4n3C)c2=O)cc1,> 80 µM (inactive)
19,Cc1ccc2c(c1)C(=O)C(=O)N2Cc1ccc(Cl)cc1,inactive
20,CCOc1ccc2nc(NC3=NC(c4ccc(OC)cc4)CC(=O)N3)nc(C)c2c1 (stereo unspecified),11.8 µM
21,CN(C)C(=O)CCc1ccc2c3c([nH]c2c1)[C@]1(CCc2ccccc2)[C@@H](C(=O)N2CCCCC2)C[C@H](CC(=O)NCCC2=CCCCC2)C(=O)N1CC3,inactive
22,NS(=O)(=O)c1ccc(N=Cc2c(O)n(C3CCCCC3)c(=O)n(C3CCCCC3)c2=O)cc1,14.6 µM
23,CC1=CC(C)[C@H](/C=N/n2c(=O)[nH]c3c([nH]c4ccc(C)cc43)c2=O)C(C)C1 (stereo partly specified),inactive

row,SMILES,EC50
1,COc1cccc(C(=O)Oc2cc3c4c(c2)C(C)=CC(C)(C)N4C(=O)C3=O)c1,15.7 µM
2,COc1ccc(/C=c2\s/c(=C(/C#N)C(=O)NCc3ccco3)n(-c3ccccc3)c2=O)cc1,inactive
3,CCOC(=O)c1nn(-c2ccc(OCC)cc2)c2nc(-c3ccco3)c(C#N)c(=O)n12,inactive
4,CN(C)CCOc1ccc(-c2c(-c3ccccc3)sc3ccccc23)cc1,17 µM
5,Cc1cnc(NC(=O)c2cc3c(C)nn(Cc4ccccc4Cl)c3s2)s1,> 80 µM (inactive)
6,O=C1NC(=O)N(Cc2ccccc2Cl)C(=O)/C1=C/c1cccs1,13 µM
7,CN(C)CCCN(C(=O)c1ccc(S(=O)(=O)N2CCc3ccccc3C2)cc1)c1nc2ccc(F)cc2s1,8.2 µM
8,CC(C)c1ccc(C2C3=C(COC3=O)Nc3cc4c(cc32)OCO4)cc1 (stereo unspecified),inactive
9,O=C(NCCCn1ccnc1)c1nn2c(C(F)(F)F)cc(-c3ccc(Br)cc3)nc2c1Cl,> 80 µM (inactive)
10,Cc1ccc2nsnc2c1NC(=O)c1ccc(-c2cc(Cl)ccc2Cl)o1,> 80 µM (inactive)
11,O=C(C[C@@H]1C/C=C/CC[C@H](Cc2ccc(F)cc2)C(=O)OC[C@@H](Cc2ccccc2)NC1=O)N[C@H](CO)Cc1ccccc1,14.4 µM
12,CN(C)CCCN(C(=O)c1cc(-c2cccs2)nc2ccccc12)c1nc2ccc(F)cc2s1,15.9 µM
13,CCN=C1S/C(=C\c2cn(CC(=O)NCc3ccco3)c3ccccc23)C(=O)N1CC,> 80 µM (inactive)
14,O=C(NCc1ccccc1Br)c1cccc2c1C(=O)c1ccc(-c3ccc(OC(F)(F)F)cc3)cc1S2(=O)=O,9.03 µM
15,CCOc1cc(/C=C2/C(=N)N3C=CSC3=NC2=O)ccc1OCCCOc1ccccc1C,17.7 µM
16,CCC(Sc1nnc2c3ccccc3n(CC)c2n1)C(=O)Nc1sc2c(c1C#N)CCCC2 (stereo unspecified),inactive
17,Cc1cc(NC(=O)c2cncc(Br)c2)ccc1NC(=O)c1cc2ccccc2o1,> 80 µM (inactive)
18,N#C/C(=C/c1ccc(N2CCCC2)c([N+](=O)[O-])c1)c1nc2ccccc2[nH]1,> 80 µM (inactive)
19,CC(C)N=C(NS(=O)(=O)c1ccccc1)C(Cl)(Cl)Cl,> 80 µM (inactive)
20,CCCC[C@@H](C)C[C@@H](C)C(=O)N(C)[C@@H](CC(C)C)C(=O)N[C@H](C(=O)N(C)[C@H](C(=O)N1C[C@@H](O)C[C@H]1C(=O)N1C(=O)C=C[C@@H]1C)C(C)C)C(C)OC(C)=O (stereo partly specified),7.75 µM
21,O=C(COc1ccc(Cl)cc1Cl)NN=C1c2ccccc2-c2ccccc21,inactive
22,CCN(CC)c1ccc(C(=O)OCC(=O)Nc2cc3oc4ccccc4c3cc2OC)cc1,20 µM
